Assays:
[1] = cited from earlier work
[2] = Solubility of NUC-7738 in a range of solvents; assay type: physicochemical
[3] = NUC-7738 concentrate mixed with Tween 80 and added to saline, checked by eye for precipitation; assay and purity after 48 h; assay type: physicochemical
Experimental: 50 µL of a 100 mg/mL concentrate of NUC-7738 (mixture of diastereoisomers) in a range of solvents (DMA, DMSO, NMP, ethanol, benzyl alcohol) was mixed with 50 µL of Tween® 80 and added to 1.150 mL saline and the resultant solutions were checked by eye for precipitation of NUC-7738. Similarly a 50 µL concentrate of NUC-7738 (mixture of diastereoisomers) in Tween® 80 was mixed with 50 µL water for injection and then added to 1.150 mL saline.
(§1) Even a solubiliser is not effective, in the absence of a polar aprotic solvent, at retaining NUC-7738 in solution in aqueous conditions. The solutions prepared above were assayed for NUC-7738 content and purity on being formed and also after 48 h. […] In a further experiment, the […] concentration of NUC-7738 in solvents that could be diluted with saline without precipitation was determined. Solutions of NUC-7738 (mixture of diastereoisomers) at various concentrations in NMP, DMSO and DMA were prepared and 100 µL of the solutions were added to 2.40 mL saline.

[4] = NUC-7738 solutions in NMP, DMSO, DMA diluted with saline, observed for precipitation; assay type: physicochemical
Experimental: as §1

[5] = solutions of Table 8, after 48 h versus on being formed

C[C@H](NP(=O)(OC[C@H]1O[C@@H](n2ccc(N)nc2=O)C(F)(F)[C@@H]1O)Oc1ccccc1)C(=O)OCc1ccccc1 (stereo partly drawn) [NUC-1031, 2′-deoxy-2′,2′-difluoro-D-cytidine-5′-O-[phenyl (benzoxy-L-alaninyl)] phosphate]
Stability (to precipitation and to degradation) ([1]; S-isomer alone or mixture of R and S epimers at 4, 8 and 10 mg/mL, 48 hours after dilution in 0.45% and 0.9% saline, pH 4.5, 6.0 and 7.0, not stirred): stable
Osmolarity ([1]; all of the NUC-1031 solutions): acceptable for peripheral administration

C[C@H](NP(=O)(OC[C@@H]1C[C@@H](O)[C@H](n2cnc3c(N)ncnc32)O1)Oc1ccccc1)C(=O)OCc1ccccc1 (stereo partly drawn) [NUC-7738, 3′-deoxyadenosine-5′-O-[phenyl(benzyloxy-L-alaninyl)] phosphate]
Solubility ([2]; 5% Tween in water): <11.8 mg/mL
Solubility ([2]; DMA): >667 mg/mL
Solubility ([2]; DMSO): >667 mg/mL
Solubility ([2]; Ethanol): >667 mg/mL
Solubility ([2]; Heptane): <12 mg/mL
Solubility ([2]; NMP): >667 mg/mL
Solubility ([2]; Propylene Glycol): >667 mg/mL
Solubility ([2]; isopropylacetate): <9 mg/mL
Solubility ([2]; tbutylmethylether): <11 mg/mL
Appearance ([3]; 100 mg/mL concentrate in BnOH 50 + TW80 50 + Saline 1150): White precipitate, milky solution
Appearance ([3]; 100 mg/mL concentrate in DMA 50 + TW80 50 + Saline 1150): Clear and limpid solution
Appearance ([3]; 100 mg/mL concentrate in DMSO 50 + TW80 50 + Saline 1150): Clear and limpid solution
Appearance ([3]; 100 mg/mL concentrate in EtOH 50 + TW80 50 + Saline 1150): White precipitate, milky solution
Appearance ([3]; 100 mg/mL concentrate in NMP 50 + TW80 50 + Saline 1150): Clear and limpid solution
Appearance ([3]; concentrate in TW80 50 + WFI 50 + Saline 1150): White precipitate, milky solution
Assay content [3, 5]: substantially unchanged
Purity [3, 5]: substantially unchanged
Appearance ([4]; DMA 25 mg/ml concentrate 100 + Saline 2400): White insoluble precipitate from the first drop
Appearance ([4]; DMSO 25 mg/ml concentrate 100 + Saline 2400): White precipitate after addition of 100 μL
Appearance ([4]; DMSO 50 mg/ml concentrate 100 + Saline 2400): White insoluble precipitate from the first drop
Appearance ([4]; DMSO 100 mg/ml concentrate 100 + Saline 2400): White insoluble precipitate from the first drop
Appearance ([4]; NMP 25 mg/ml concentrate 100 + Saline 2400): Clear and limpid solution
Appearance ([4]; NMP 50 mg/ml concentrate 100 + Saline 2400): White insoluble precipitate from the first drop
Appearance ([4]; NMP 100 mg/ml concentrate 100 + Saline 2400): White insoluble precipitate from the first drop

From patent US12357652B2, “Formulations of phosphoramidate derivatives of nucleoside drugs” (priority 2015, dated 2025)
